The values that follow come from patent EP0300073A1 (priority 1987, dated 1989).

In one test the test system is AIDS. The experiment in a line: clinical use in AIDS patients (case history, fusidic acid added to the therapeutic regimen). The format is in vivo, human. How it is done:
Since it is known that fusidic acid can penetrate phagocytic cells and kill intracellular bacteria, fusidic acid was administered to AIDS patients with opportunistic infections in the hope that it might assist other antibiotics in combatting these infections. […] The present invention is based on this unexpected finding.
The patient, a person with a past history of hepatitis (HBsAG positive) and recurrent seborrhoic dermatitis was well until 1984 when they consulted a physician since they were suffering from lethargy, fever and weight loss. […] They remained stable with no further deterioration until 1986 when they suffered further weight loss and diarrhoea. […] Mycobacterium hominis was grown from both the stool and the blood following the detection of acid fast bacilli in a lymph node biopsy. The patient was given isoniazid, ethambutol and rifampicin as well as antiparasitic and local antifungal therapy. After six weeks of treatment there was no improvement with respect to their symptoms and they continued to lose weight (16 kg since admission). […] (orally) was added to their regimen. Two weeks following commencement they became afebrile, began to put on weight and was able to undergo a transurethral prostectomy, following which they returned to work and has been well since. Two months later they had increased their weight by 10 kg.

The next test has as its system gram negative bacilli. To be noted: cited from earlier work.
In a further test the test system is fungi. The following applies: cited from earlier work.
Another test has as its system Coxsackie virus A21. The following applies: cited from earlier work.
In a further test the test system is rhinovirus. To be noted: cited from earlier work.
Another test concerns RF. The experiment in a line: in vitro test for anti-HIV activity: prevention of infection of a CD4 positive cell line. Format: cell-based. The following applies: Human immunodeficiency virus 1, isolate RF, read-out: concentration required to prevent infection of the CD4 positive cell line. The text has this: (§1) In the in vitro test for anti-HIV activity, a CD4 positive cell line was used.

Test [1] deals with HIV prototype isolate CBL-1. The description is as above. Format: cell-based. The following applies: Human immunodeficiency virus 1, read-out: concentration able to inhibit the HIV prototype isolate CBL-1 from infecting the CD4 positive cell line.
Source text: as §1

The structures appear in SMILES notation.

For `CC(=O)O[C@H]1C[C@@]2(C)[C@@H](C[C@@H](O)[C@H]3[C@@]4(C)CC[C@@H](O)[C@@H](C)[C@@H]4CC[C@@]32C)/C1=C(\CCC=C(C)C)C(=O)O` [fusidic acid], the “general condition of AIDS patients” value in the test with AIDS (AIDS patients with opportunistic infections, added to the therapeutic regimen) was “remarkable improvement”. Moreover, the fever status entry in the test with AIDS (one AIDS patient, 500 mg t.d.s. orally added to isoniazid, ethambutol, rifampicin, antiparasitic and antifungal therapy, two weeks following commencement) was “afebrile”. The weight increase in the test on AIDS (one AIDS patient, 500 mg t.d.s. orally added to regimen, two months later) was 10 kg. Moreover, the “activity against gram negative bacilli” value in the test with gram negative bacilli is recorded as “weak activity”. The activity against fungi result with fungi was “weak activity”. Further, the “in vitro antiviral effect against Coxsackie virus A21” value with Coxsackie virus A21 is “some in vitro antiviral effect”. Besides, the “in vitro antiviral effect against rhinovirus” value with rhinovirus is reported as “some in vitro antiviral effect”. The minimal effective concentration in the test on RF came to 100 µg/mL; in test [1], 50 µg/mL.
